From US20070224167A1, “Novel HCV inhibitor combinations and methods” (priority 2006, published 2007)

Experiments:
HCV 1a H77 replicon = assay: Intracellular antiviral activity in HCV replicon, genotype 1a; type: cell-based, HCV genotype 1a; settings: Hepatitis C virus, 72 h, read-out: HCV RNA EC50
Description: HCV genotype 1b, BB7 replicon-containing cell line is derived from a human hepatoma cell line (Huh7). A genotype 1a (H77 isolate; GenBank Accession #AF009606) is derived from replicon-containing cell line (Huh7-1a). The cell lines are cultured at 37° C. and 5% CO2 in Dulbecco's Modified Eagle Media (D-MEM; Invitrogen #11965-084) containing 10% fetal bovine serum (FBS; HyClone #SH300070) supplemented with 1% penicillin/streptomycin (Invitrogen #15140-122), 1% non-essential amino acids (Invitrogen #11140-050), 0.66 mM HEPES buffer, pH 7.55 (Invitrogen #15630-080), and 1 mg/mL G418 (Geneticin®, Invitrogen #11811-031 or #10131-027). […]
(§1) At the end of the incubation period, the replicon-containing cells are lysed in 150 μL of lysis buffer provided in the RNeasy 96 Kit (Qiagen #74181). […] For duplexed RT-PCR quantifying both HCV RNA and 18S rRNA, 0.08 μM rRNA forward primer, 0.1 μM rRNA reverse primer, and 0.2 μM rRNA probe are added (ABI #4308329). […]
The amounts of the HCV and 18S ribosomal RNAs in each sample are estimated by comparing the Ct cycles with those in the corresponding standard curves. […] The total RNA that is used for preparing the standard curve of the rRNA is quantified by O.D.260 measurement. Compound dose response is measured in a 10-point, 3-fold serial dilution series performed in triplicates and subjected to the same corresponding RT-PCR conditions as described above. […]

HCV 1b BB7 replicon = assay: Intracellular antiviral activity in HCV replicon, genotype 1b; type: cell-based, HCV genotype 1b; settings: for EC50: Hepatitis C virus, 72 h, read-out: HCV RNA EC50
Description: HCV genotype 1b, BB7 replicon-containing cell line is derived from a human hepatoma cell line (Huh7). A genotype 1a (H77 isolate; GenBank Accession #AF009606) is derived from replicon-containing cell line (Huh7-1a). The cell lines are cultured at 37° C. and 5% CO2 in Dulbecco's Modified Eagle Media (D-MEM; Invitrogen #11965-084) containing 10% fetal bovine serum (FBS; HyClone #SH300070) supplemented with 1% penicillin/streptomycin (Invitrogen #15140-122), 1% non-essential amino acids (Invitrogen #11140-050), 0.66 mM HEPES buffer, pH 7.55 (Invitrogen #15630-080), and 1 mg/mL G418 (Geneticin®, Invitrogen #11811-031 or #10131-027). Genotype 1a and genotype 1b replicon-containing cell lines contain approximately 1000 and 2000 RNA genome equivalents per cell, respectively, when maintained in a subconfluent monolayer in the presence of 1 mg/mL G418. For compound testing, G418 is eliminated and the FBS concentration is reduced to 2%.
as §1, with “#74181). Total cellular RNA is extracted according to the manufacturer's protocol and eluted in 150 μL of nuclease-free water.” for “#74181).”
The amounts of the HCV and 18S ribosomal RNAs in each sample are estimated by comparing the Ct cycles with those in the corresponding standard curves. […] The total RNA that is used for preparing the standard curve of the rRNA is quantified by O.D.260 measurement. Compound dose response is measured in a 10-point, 3-fold serial dilution series performed in triplicates and subjected to the same corresponding RT-PCR conditions as described above. […] The amounts of HCV are expressed as HCV RNA copies and μg total RNA using rRNA as the surrogate marker for the quantification. […]

[1] = test system: HCV replicon cells (Huh-7 cells); assay: Inhibition of replicon RNA levels (3-day assay, Taqman); type: cell-based; settings: Hepatitis C virus
Description: Replicon cells are seeded at ˜5000 cells/well in 96-well collagen I-coated Biocoat plates (Becton Dickinson). Twenty-four hrs post-seeding, inhibitors diluted in DMSO are added to replicon cells (Huh-7 cells). The final concentrations of DMSO and fetal bovine serum are 1% and 10%, respectively. SCH 503034 is serially diluted at 1:2 for a 10-point titration. To each concentration of the SCH 503034, the second inhibitor, HCV-796 or rhIFN-α2b control is titrated in. IFN-α is serially diluted at 1:3, whereas HCV RNA polymerase inhibitor, HCV-796, is serially diluted at 1:2. […] All samples are tested in triplicate. Media and inhibitors are refreshed daily for 3 days at which point the cells are washed with PBS and lysed in 1× cell lysis buffer (Ambion cat #8721). The replicon RNA level is measured using real time PCR (Taqman assay) The amplicon is located in 5B. The PCR primers are: 5B.2F, […] (SEQ ID NO:1) and 5B.2R, […] (SEQ ID NO:2). The probe sequence is FAM-labeled […] (SEQ ID NO:3). GAPDH RNA is used as an endogenous control and is amplified in the same reaction as NS5B (multiplex PCR) using primers and VIC-labeled probe recommended by the manufacturer (PE Applied Biosystem). The real-time RT-PCR reactions are run on an AB1 PRISM 7900HT Sequence Detection System using the following program: 48° C. for 30 min, 95° C. for 10 min, 40 cycles of 95° C. for 15 sec, […] for 1 min. […]

SMILES | EC50 (HCV 1a H77 replicon) [nM] | EC50 (HCV 1b BB7 replicon) [nM] | Difference in EC50, changing media daily vs. single dose in 3 days (HCV 1b BB7 replicon; replicon, 3 days) | IC90 [1] [nM]
CC(C)(C)NC(=O)N[C@H](C(=O)N1C[C@H]2[C@@H]([C@H]1C(=O)NC(CC1CCC1)C(=O)C(N)=O)C2(C)C)C(C)(C)C (stereo partly drawn) [SCH 503034, (1R,5S)—N-[3-amino-1-(cyclobutylmethyl)-2,3-dioxopropyl]-3-[2(S)-[[[(1,1-dimethylethyl)amino]carbonyl]amino]-3,3-dimethyl-1-oxobutyl]-6,6-dimethyl-3-azabicyclo[3.1.0]hexan-2(S)-carboxamide] | 188 ± 18 | 268 ± 29 | No difference in EC50 | 400
CNC(=O)c1c(-c2ccc(F)cc2)oc2cc(N(CCO)S(C)(=O)=O)c(C3CC3)cc12 [HCV-796, 5-cyclopropyl-2-(4-fluoro-phenyl)-6-[(2-hydroxy-ethyl)-methanesulfonyl-amino]-benzofuran-3-carboxylic acid methylamide] | 2.5 ± 1.7 | 1.1 ± 0.2 | – | 30
